According to US20100267561A1, “HERBICIDAL PYRIDAZINONE DERIVATIVES” (priority 2007, published 2010):

Tests used:
Format in all cases: in vivo
corn (Zea mays) = test: Test A pre-/postemergence plant response
Method in brief: (§1)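 Seeds were planted in blended loam soil and sand, then treated preemergence by directed soil spray. At that time, emerged plants (one- to two-leaf, 2–10 cm) received postemergence applications of the same surfactant-containing formulation. Injury was assessed visually on a 0–100 scale after approximately 10 days.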

[1] = system: giant foxtail (Setaria faberi); test: Test A pre-/postemergence plant response
Method in brief: as §1

[2] = system: Italian ryegrass (Lolium multiflorum); test: Test B pre-/postemergence plant response; details: for Ryegrass, Italian plant response rating: 8 g ai/ha
Text: (§2) Seeds of plant species selected from blackgrass (Alopecurus myosuroides), downy bromegrass (Bromus tectorum), green foxtail (Setaria viridis), Italian ryegrass (Lolium multiflorum), wheat (Triticum aestivum), wild oat (Avena fatua), catchweed bedstraw (Galium aparine), bermudagrass (Cynodon dactylon), surinam grass (Brachiaria decumbens), cocklebur (Xanthium strumarium), corn (Zea mays), large crabgrass (Digitaria sanguinalis), woolly cupgrass (Eriochloa villosa), giant foxtail (Setaria faberii), goosegrass (Eleusine indica), johnsongrass (Sorghum halepense), kochia (Kochia scoparia), lambsquarters (Chenopodium album), morningglory (Ipomoea coccinea), eastern black (E.B.) nightshade (Solanum ptycanthum), yellow nutsedge (Cyperus esculentus), pigweed (Amaranthus retroflexus), common ragweed (Ambrosia elation), Russian thistle (Salsola iberica), soybean (Glycine max), common (oilseed) sunflower (Helianthus annuus), and velvetleaf (Abutilon theophrasti) were planted and treated preemergence with test chemicals formulated in a non-phytotoxic solvent mixture which included a surfactant.
(§3) At the same time, plants selected from these crop and weed species and also winter barley (Hordeum vulgare), canarygrass (Phalaris minor), chickweed (Stellaria media) and windgrass (Apera spica-venti) were treated with postemergence applications of some of the test chemicals formulated in the same manner. Plants ranged in height from 2 to 18 cm (1- to 4-leaf stage) for postemergence treatments.
(§4) Plant species in the flooded paddy test consisted of rice (Oryza sativa), umbrella sedge (Cyperus difformis), ducksalad (Heteranthera limosa) and barnyardgrass (Echinochloa crus-galli) grown to the 2-leaf stage for testing. At time of treatment, test pots were flooded to 3 cm above the soil surface, treated by application of test compounds directly to the paddy water, and then maintained at that water depth for the duration of the test. Treated plants and controls were maintained in a greenhouse for 13 to 15 days, after which time all species were compared to controls and visually evaluated. Plant response ratings, summarized in Table B, are based on a scale of 0 to 100 where 0 is no effect and 100 is complete control. A dash (-) response means no test result.

[3] = system: bermudagrass (Cynodon dactylon); test: Test B pre-/postemergence plant response; details: for Bermudagrass plant response rating: 8 g ai/ha
Text: as §2, §3, §4

[4] = system: common (oilseed) sunflower (Helianthus annuus); test: Test B pre-/postemergence plant response; details: Preemergence
Text: as §2, §3, §4

[5] = system: eastern black (E.B.) nightshade (Solanum ptycanthum); test: Test B pre-/postemergence plant response; details: Preemergence
Text: as §2, §3, §4

[6] = system: johnsongrass (Sorghum halepense); test: Test B pre-/postemergence plant response; details: for Johnsongrass plant response rating: 8 g ai/ha
Text: as §2, §3, §4

kochia (Kochia scoparia) = test: Test B pre-/postemergence plant response; details: for Kochia plant response rating: 8 g ai/ha
Text: as §2, §3, §4

soybean (Glycine max) = test: Test B pre-/postemergence plant response; details: for Soybean plant response rating: 8 g ai/ha
Text: as §2, §3, §4

[7] = system: velvetleaf (Abutilon theophrasti); test: Test B pre-/postemergence plant response; details: for Velvetleaf plant response rating: 8 g ai/ha
Text: as §2, §3, §4

[8] = system: wheat (Triticum aestivum); test: Test B pre-/postemergence plant response; details: for Wheat plant response rating: 8 g ai/ha
Text: as §2, §3, §4

[9] = system: yellow nutsedge (Cyperus esculentus); test: Test B pre-/postemergence plant response; details: for Nutsedge, Yellow plant response rating: 8 g ai/ha
Text: as §2, §3, §4

[10] = Postemergence, 31 g ai/ha, 0 to 100 scale, 0 no effect, 100 complete control
[11] = Postemergence, 125 g ai/ha, 0 to 100 scale, 0 no effect, 100 complete control
[12] = Preemergence, 31 g ai/ha, 0 to 100 scale, 0 is no effect, 100 is complete control
[13] = Preemergence, 125 g ai/ha, 0 to 100 scale (0 no effect, 100 complete control)
[14] = Postemergence, 16 g ai/ha, scale 0 to 100
[15] = Postemergence, 31 g ai/ha, scale 0 to 100, 0 no effect, 100 complete control
[16] = Postemergence, 62 g ai/ha, scale 0 to 100, 0 no effect, 100 complete control
[17] = Preemergence, 16 g ai/ha, scale 0 to 100 (0 no effect, 100 complete control)
[18] = Preemergence, 31 g ai/ha, 0 to 100 scale, 0 no effect, 100 complete control
[19] = Preemergence, 62 g ai/ha, scale 0 to 100
[20] = 16 g ai/ha, scale 0 to 100 (0 no effect, 100 complete control)
[21] = 31 g ai/ha, 0 to 100 scale, 0 no effect, 100 complete control

Cc1cc(-c2ccc(Cl)cc2)nn1-c1c(OS(=O)(=O)c2ccccc2)cnn(C)c1=O [Compound 35]
Plant response rating, Corn (corn (Zea mays); [10]): 0 | Plant response rating, Corn (corn (Zea mays); [11]): 60 | Plant response rating, Corn (corn (Zea mays); [12]): 0 | Plant response rating, Corn (corn (Zea mays); [13]): 80 | Plant response rating, Foxtail, Giant [1, 10]: 60 | Plant response rating, Foxtail, Giant [1, 11]: 90 | Plant response rating, Foxtail, Giant [1, 12]: 100 | Plant response rating, Foxtail, Giant [1, 13]: 100 | Ryegrass, Italian plant response rating ([2]; postemergence, 0-100 scale): 40 | Plant response rating, Ryegrass, Italian [2, 14]: 40 | Plant response rating, Ryegrass, Italian [2, 15]: 90 | Plant response rating, Ryegrass, Italian [2, 16]: 98 | Plant response rating, Ryegrass, Italian [2, 17]: 100 | Plant response rating, Ryegrass, Italian [2, 18]: 100 | Plant response rating, Ryegrass, Italian [2, 19]: 100 | Ryegrass, Italian plant response rating ([2]; Preemergence, scale 0 to 100): 100 | Bermudagrass plant response rating ([3]; postemergence, 0-100 scale): 40 | Plant response rating, Bermudagrass [3, 14]: 65 | Plant response rating, Bermudagrass [3, 15]: 100 | Plant response rating, Bermudagrass [3, 16]: 100 | Bermudagrass plant response rating ([3]; Preemergence, scale 0 to 100 (0 no effect, 100 complete control)): 98 | Plant response rating, Bermudagrass [3, 17]: 98 | Plant response rating, Bermudagrass [3, 18]: 100 | Plant response rating, Bermudagrass [3, 19]: 100 | Plant response rating, Sunflower [4, 20]: 0 | Plant response rating, Sunflower [4, 21]: 0 | Plant response rating, Sunflower ([4]; 62 g ai/ha, scale 0 to 100): 0 | Sunflower plant response rating ([4]; 8 g ai/ha, scale 0 to 100): 0 | Plant response rating, Nightshade, E. B. [5, 20]: 0 | Plant response rating, Nightshade, E. B. [5, 21]: 0 | Plant response rating, Nightshade, E. B. ([5]; 62 g ai/ha, scale 0 to 100): 0 | Nightshade, E. B. plant response rating ([5]; 8 g ai/ha, scale 0 to 100): 0 | Johnsongrass plant response rating ([6]; postemergence, 0-100 scale): 0 | Plant response rating, Johnsongrass [6, 14]: 60 | Plant response rating, Johnsongrass [6, 15]: 95 | Plant response rating, Johnsongrass [6, 16]: 95 | Plant response rating, Johnsongrass [6, 17]: 80 | Plant response rating, Johnsongrass [6, 18]: 80 | Plant response rating, Johnsongrass [6, 19]: 80 | Johnsongrass plant response rating ([6]; Preemergence, scale 0 to 100): 45 | Kochia plant response rating (kochia (Kochia scoparia); postemergence, 0-100 scale): 0 | Plant response rating, Kochia (kochia (Kochia scoparia); [14]): 0 | Plant response rating, Kochia (kochia (Kochia scoparia); [15]): 0 | Plant response rating, Kochia (kochia (Kochia scoparia); [16]): 0 | Plant response rating, Kochia (kochia (Kochia scoparia); [17]): 0 | Plant response rating, Kochia (kochia (Kochia scoparia); [18]): 0 | Kochia plant response rating (kochia (Kochia scoparia); Preemergence, scale 0 to 100): 0 | Soybean plant response rating (soybean (Glycine max); postemergence, 0-100 scale): 0 | Plant response rating, Soybean (soybean (Glycine max); [14]): 0 | Plant response rating, Soybean (soybean (Glycine max); [16]): 0 | Plant response rating, Soybean (soybean (Glycine max); [17]): 0 | Plant response rating, Soybean (soybean (Glycine max); [18]): 0 | Plant response rating, Soybean (soybean (Glycine max); [19]): 0 | Soybean plant response rating (soybean (Glycine max); Preemergence, scale 0 to 100): 0 | Velvetleaf plant response rating ([7]; postemergence, 0-100 scale): 0 | Plant response rating, Velvetleaf [7, 14]: 0 | Plant response rating, Velvetleaf [7, 16]: 0 | Plant response rating, Velvetleaf [7, 17]: 0 | Plant response rating, Velvetleaf [7, 18]: 0 | Plant response rating, Velvetleaf [7, 19]: 0 | Velvetleaf plant response rating ([7]; Preemergence, scale 0 to 100): 0 | Wheat plant response rating ([8]; postemergence, 0-100 scale): 0 | Plant response rating, Wheat [8, 14]: 35 | Plant response rating, Wheat [8, 16]: 85 | Plant response rating, Wheat [8, 17]: 0 | Plant response rating, Wheat [8, 18]: 0 | Plant response rating, Wheat [8, 19]: 30 | Wheat plant response rating ([8]; Preemergence, scale 0 to 100): 0 | Nutsedge, Yellow plant response rating ([9]; postemergence, 0-100 scale): 0 | Plant response rating, Nutsedge, Yellow [9, 14]: 0 | Plant response rating, Nutsedge, Yellow [9, 15]: 0 | Plant response rating, Nutsedge, Yellow [9, 16]: 0 | Plant response rating, Nutsedge, Yellow [9, 17]: 0 | Plant response rating, Nutsedge, Yellow [9, 18]: 0 | Plant response rating, Nutsedge, Yellow [9, 19]: 0 | Nutsedge, Yellow plant response rating ([9]; Preemergence, scale 0 to 100): 0
